Laboratory results reported in paper PMC9841576, “Characterisation of C101248: A novel selective THIK-1 channel inhibitor for the modulation of microglial NLRP3-inflammasome” (Neuropharmacology, 2023).
pIC50: −log10 of the molar value.

How the values were obtained:
[1] = tested on: NLRP3-dependent release of IL-1β; assay: IL-1β release from LPS-primed neonatal microglia exposed to K+-free buffer; assay type: cell-based, mouse
Experimental: In brief, brains were dissected by removing meninges, cerebellum, and olfactory bulbs before tissue was finely minced with a scalpel then digested with papain solution for 20 min at 37 °C. Tissue was dissociated and the resulting cell suspension was passed through a 40 μm cell strainer (Greiner Bio-One). Cells were centrifuged at 300 g for 5 min then resuspended in culture medium (DMEM, 10% FBS, 1% PenStrep) and plated in T75 collagen-coated flasks (Greiner Bio-One). A full medium change was caried out on day 2 while a half medium was changed on day 5 in the presence of 5 ng/ml of mouse GM-CSF (R&D Systems). Microglia were shaken off between day 9 and 11 and plated onto poly-D-lysine coated 96-well plates (μclear, Greiner Bio-One) at a density of 20,000 cells/well.
IL-1β from culture supernatants was measured with DuoSet ELISA kit (R&D Systems) following the manufacturer instructions.

[2] = target: T1, THIK-1 K+ currents in microglia (Mus musculus, UniProt Q8R1P5); assay: Whole-cell patch clamp of microglia in acute hippocampal slices, wild-type mice; assay type: cell-based
T1 construct: To study the effect of C10248 in native brain tissue; from tissue; host or cells: microglia in acute hippocampal slices of 3-4 month old Cx3Cr1-GFP mice
T1 sequence (Q8R1P5 whole entry): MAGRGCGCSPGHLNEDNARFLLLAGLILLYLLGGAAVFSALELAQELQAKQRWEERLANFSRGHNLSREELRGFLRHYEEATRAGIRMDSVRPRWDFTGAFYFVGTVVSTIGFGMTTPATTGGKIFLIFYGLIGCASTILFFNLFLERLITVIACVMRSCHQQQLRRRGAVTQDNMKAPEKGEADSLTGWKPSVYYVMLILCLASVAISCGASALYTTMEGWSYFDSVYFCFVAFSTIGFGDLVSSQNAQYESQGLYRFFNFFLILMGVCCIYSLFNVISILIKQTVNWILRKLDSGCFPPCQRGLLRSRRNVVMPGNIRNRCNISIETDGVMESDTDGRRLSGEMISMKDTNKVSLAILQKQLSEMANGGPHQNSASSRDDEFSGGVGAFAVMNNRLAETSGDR
Experimental: Acute hippocampal slices (300 μm thick), from 3 to 4 months old mice, were prepared using a specially adapted protective slicing solution ([Ting et al., 2014]) containing (mM) 93 choline chloride, 20 HEPES, 30 NaHCO3, 2.5 KCl, 0.5 CaCl2, 10 MgCl2, 1.2 NaH2PO4, 25 glucose, 1 kynurenic acid, 5 Na-ascorbate, 3 Na-pyruvate, pH adjusted to 7.4, bubbled with 95% O2/5% CO2 and cooled at <4 °C, and a recovery solution containing (mM) 92 NaCl, 20 HEPES, 30 NaHCO3, 2.5 KCl, 2 CaCl2, 1 MgCl2, 1.2 NaH2PO4, 25 glucose, 1 kynurenic acid, 5 Na-ascorbate, 3 Na-pyruvate, pH set to 7.4 and bubbled with 95% O2/5% CO2
Immediately after slicing, slices were placed for 13 min in warm (33–35 °C) slicing solution and then transferred to recovery solution at room temperature until experimental usage. […] Slices were perfused with bicarbonate-buffered solution, at 34–36 °C for all experiments, containing (mM) 124 NaCl, 2.5 KCl, 26 NaHCO3, 1 NaH2PO4, 2 CaCl2, 1 MgCl2, 10 glucose, bubbled with 95% O2/5% CO2. Microglia were whole-cell clamped with electrodes containing K-gluconate based solution, comprising (mM) 130 K-glu, 4 NaCl, 1 CaCl2, 10 HEPES, 10 EGTA, 4 MgATP, 0.5 Na2GTP, pH set to 7.2 with KOH and osmolarity adjusted to […]. […] Currents were filtered at 1 kHz, digitized (10 kHz) and analysed off-line using pClamp10 software.

THIK-1 = target: T2, THIK-1 (Homo sapiens, UniProt Q9HB14); assay: Whole-cell manual patch clamp of HEK-hTHIK-1 cells with rapid perfusion exchanger; assay type: cell-based; conditions: current at 50 mV
T2 construct: expressed in transfected cells
T2 sequence (Q9HB14 1-408): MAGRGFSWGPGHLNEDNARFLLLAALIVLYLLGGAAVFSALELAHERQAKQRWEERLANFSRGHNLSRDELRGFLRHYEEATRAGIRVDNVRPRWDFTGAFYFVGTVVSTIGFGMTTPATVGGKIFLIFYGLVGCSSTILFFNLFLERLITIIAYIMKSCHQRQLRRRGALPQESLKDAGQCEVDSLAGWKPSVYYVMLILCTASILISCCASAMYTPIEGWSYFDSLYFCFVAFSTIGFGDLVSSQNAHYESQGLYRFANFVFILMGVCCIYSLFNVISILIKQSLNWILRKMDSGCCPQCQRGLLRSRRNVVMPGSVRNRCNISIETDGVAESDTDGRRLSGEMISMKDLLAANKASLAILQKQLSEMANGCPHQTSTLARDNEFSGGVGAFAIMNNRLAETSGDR
Experimental: Cells were plated onto uncoated, sterile glass coverslips at a density of 1 × 10^6 cells/ml in a droplet of approximately 200 μl and incubated at 37 °C/5% CO2 before use at least 24 h later. Coverslips were transferred to the microscope stage chamber and cells visualised under IR-DIC illumination. The chamber was gravity perfused with a solution containing (in mM): 140 NaCl, 2.5 KCl, 10 HEPES, 1 NaH2PO4.H20, 2 CaCl2, 1 MgCl2, 10 glucose, with pH adjusted to 7.4 using NaOH and osmolarity adjusted to 320 mOsM using sucrose. The chamber was fed from a rapid perfusion exchanger, which continuously perfused square, multi-barrelled glass tubes, using laminar flow. Cells were patched using micropipettes filled with a solution containing (in mM): 125 KCl, 4 NaCl, 1 CaCl2, 10 HEPES, 10 EGTA, 4 MgATP, 2 Na2ATP, 2 MgCl2, 0.5 Na2GTP, pH adjusted to 7.1 with KOH and osmolarity adjusted to 320 mOsm with sucrose. The liquid junction potential was calculated to be 4.8 mV and was not corrected for. […] The current at 50 mV from each sweep was measured and plotted against time. Curves were fitted in GraphPad Prism to a one phase decay [Y= IF(X < X0, Y0, Plateau+(Y0-Plateau)*exp(-K*(X-X0))), where x = time, y = Y0 until X = X0 then decays down to plateau with one phase, K = rate constant]. τ values were calculated to determine the activation time constant.

SMILES: Nc1nonc1-c1nc2ccccc2n1Cc1ccncc1 [C101248]
- reduction of IL-1β release ([1]; 10 μM, wild type neonatal microglia, K+-free buffer): ~55%
- pIC50 ([1]; Mus musculus, wild-type neonatal microglia, LPS-primed, K+-free buffer, read-out: IC50, inhibition of IL-1β release): 6.97
- effect on K+-free buffer-induced release of IL-1β in THIK-1 KO microglia ([1]; THIK-1 KO neonatal microglia, 10 μM): no impact
- effect on microglial resting membrane potential ([2]; 5 μM, current-clamp, no externally applied ATP): significantly depolarised
- effect on 100 μM ATP-evoked THIK-1 K+ currents ([2]; 0.05, 0.5 and 5 μM, microglia voltage-clamped at 0 mV): dose-dependently inhibited
- activation time constant (τ) (THIK-1; 0.5 μM): 217.4 ± 61.4 s
- activation time constant (τ) (THIK-1; 5 μM): 83.4 ± 17.2 s
